These compounds were tested on Legionella pneumophila. Conditions: DVC step.
Type: cell-based

| SMILES | effectiveness as DNA gyrase inhibitor / cellular proliferation inhibitor | elongation of Legionella pneumophila cells and blocking of division |
| --- | --- | --- |
| O=C(O)c1cn(C2CC2)c2cc(N3CCNCC3)c(F)cc2c1=O [ciprofloxacin, Ciprofloxacin] | very effective DNA gyrase inhibitors | allow the Legionella pneumophila cells to elongate in preparation for cell division but actually block these elongated cells from dividing |
| CCn1cc(C(=O)O)c(=O)c2ccc(C)nc21 [nalidixic acid] | not a reliably effective DNA gyrase inhibitor | does not provide sufficient elongation |
| CC1=C(C(=O)O)N2C(=O)[C@@H](NC(=O)[C@H](N)c3ccccc3)[C@H]2SC1 [cephalexin] | very effective DNA gyrase inhibitors | allow the Legionella pneumophila cells to elongate in preparation for cell division but actually block these elongated cells from dividing |

— patent publication US20110076686A1 (priority 2008, published 2011)
